Reference: US6495566B2, “Tetrahydroquinoline derivatives as glycine antagonists” (Smithkline Beecham Corporation, priority 1998, dated 2002)
pKi: −log10 of the molar value.

Columns and labels:
[1] = biological target: T1, strychnine insensitive glycine binding site associated with the NMDA receptor complex (Rattus norvegicus, UniProt P35439); assay: affinity for the strychnine insensitive glycine binding site (procedure of Kishimoto H. et al)
T1 construct: from tissue
Procedure: Thus the ability to bind at the strychnine insensitive glycine binding site was determined using the procedure of Kishimoto H et al., J Neurochem 1981, 37, 1015-1024.
The affinity of the compound of the invention for the strychnine insensitive glycine binding site was determined using procedure of Kishimoto H. et al […].

formalin-induced pain = assay: formalin test in mouse (licking time of injected paw); format: in vivo; details: administered orally 1 hour before formalin injection
Procedure: The ability of compounds of the invention to inhibit pain in mouse has been assessed in the formalin test as described by Dubuisson and Dennis (Pain, 1977, 4:161-174). In this test 20 μl of 1% formalin was injected into the plantar surface of the mouse left hind paw. The amount of time, in seconds, the animals spent licking the injected paw for the first 5 minutes (early phase) and then from 20 to 60 minutes (late phase) after formalin was used as measurement of the intensity of pain. The compounds of the invention were administered orally 1 hour before formalin injection.

Row | SMILES | pKi [1] | melting point [°C] | ED50 (dose required to reduce the licking time by 50%) (formalin-induced pain) [mg/kg po]
2 | O=C(O)C1CC(C2=CCN(c3cccnc3)C2=O)c2ccc(Cl)cc2N1 (racemic) [Example 14, (±)-Sodium 7-chloro-4-(1-(3-pyridin)-Δ^3-pyrrolin-2-one-3yl)-1,2,3,4-tetrahydroquinoline-2-carboxylate] | 7.90 | – | –
3 | O=C(O)C1CC(C2=CCCN(c3ccccc3)C2=O)c2ccc(Cl)cc2N1 (racemic) [Example 15, (±)-Sodium 7-chloro-4-(1-phenyl-Δ^3-5,6-dihydro-pyridin-2-one-3yl)-1,2,3,4-tetrahydroquinoline-2-carboxylate] | 7.73 | – | –
4 | O=C(O)C1CC(C2=CCN(c3ccccc3)C2=O)c2c(Cl)cc(Cl)cc2N1 (racemic) [Example 16, (±)-Sodium 5,7-dichloro-4-(1-phenyl-Δ^3-pyrrolin-2-one-3yl)-1,2,3,4-tetrahydroquinoline-2-carboxylate] | 7.80 | – | –
5 | CC(=O)Nc1ccc(N2CC=C(C3CC(C(=O)O)Nc4cc(Cl)ccc43)C2=O)cc1 (racemic) [Example 18, (+/−)-7-chloro-4-(1-(4-acetylamino)-phenyl-Δ^3-pyrrolin-2-one-3yl)-1,2,3,4-tetrahydroquinoline-2-carboxylic acid] | 7.78 | – | –
6 | CS(=O)(=O)Nc1ccc(N2CC=C(C3CC(C(=O)O)Nc4cc(Cl)ccc43)C2=O)cc1 (racemic) [Example 19, (+/−)7-chloro-4-(1-(4-methanesulfonylamino)-phenyl-1-Δ^3-pyrrolin-2-one-3yl)-1,2,3,4-tetrahydroquinoline-2-carboxylic acid] | 8.90 | – | –
7 | O=C(O)C1CC(=C2CCN(c3cccnc3)C2=O)c2ccc(Cl)cc2N1 (racemic) [Example 22, (±)-Sodium 7-chloro-4-(2-oxo-1-(pyridn-3yl)-pyrrolidin-3-ylidene)-1,2,3,4-tetrahydro-2-quinolinecarboxylate] | 7.90 | – | –
8 | O=C(O)C1CC(=C2CCCN(c3ccccc3)C2=O)c2ccc(Cl)cc2N1 (racemic) [Example 23, (±)-7-chloro-4-(2-oxo-1-phenyl-3-piperidinylidene)-1,2,3,4-tetrahydro-2-quinolinecarboxylic acid] | – | > 130 | –
9 | O=C(O)C1CC(=C2NC(=O)N(c3ccccc3)C2=O)c2ccc(Cl)cc2N1 (racemic) [Example 24, (±)-7-chloro-4-(2,5-dioxo-1-phenyl-imidazolidin-4-ylidene)-1,2,3,4-tetrahydro-2-quinolinecarboxylic acid] | 7.80 | – | –
10 | CC(=O)Nc1ccc(N2CCC(=C3CC(C(=O)O)Nc4cc(Cl)ccc43)C2=O)cc1 (racemic) [Example 25, (+/−)-7-chloro-4-(2-oxo-1-(4-acetylamino)phenyl-pyrrolidin-3-ylidene)-1,2,3,4-tetrahydro-2-quinolinecarboxylic acid] | 7.15 | – | –
11 | O=C(O)C1CC(C2=CCN(c3ccccc3)C2=O)c2ccc(Cl)cc2N1 (single isomer, unassigned; (+)) [Example 17, (+)Sodium7-chloro-4-(1-phenyl-Δ^3pyrrolin-2-one-3yl)-1,2,3,4-tetrahydroquinoline-2-carboxylate] | […] | – | 0.3
12 | O=C([O-])C1CC(C2=CCN(c3ccccc3)C2=O)c2ccc(Cl)cc2N1.[Na+] (single isomer, unassigned; (-)) [Example 2, (−)-Sodium 7-chloro-4-(1-phenyl-Δ^3-pyrrolin-2-one-3yl)-1,2,3,4-tetrahydroquinoline-2-carboxylate] | – | – | 0.03
13 | O=C([O-])C1CC(=C2CCN(c3ccccc3)C2=O)c2ccc(Cl)cc2N1.[Na+] (single isomer, unassigned; (-)) [Example 21, (−)-Sodium 7-chloro-4-(2-oxo-1-phenyl-3-pyrrolidinylidene)-1,2,3,4-tetrahydro-2-quinolinecarboxylate] | – | – | 0.14
14 | O=C(O)C1CC(C2=CCN(c3ccccc3)C2=O)c2c(Cl)cc(Cl)cc2N1 (stereo not shown) [Example 29, Sodium, 5,7-Dichloro-4-(2-oxo-1-phenyl-Δ^3-pyrrolin-2-one-3-yl)-1,2,3,4-tetrahydro-quinoline-2-carboxylic acid; (enatiomer A)] | 8.70 | – | –
15 | O=C(O)C1CC(=C2CCN(c3ccccc3)C2=O)c2c(Cl)cc(Cl)cc2N1 (stereo not shown) [Example 30, Sodium 5,7-dichloro-4-(2-oxo-(1-phenyl)pyrrolidin-3-ylidene)-1,2,3,4-tetrahydro-2-quinoline carboxylate(enatiomer A)] | 7.70 | – | –
